Source: US20160215348A1, “GENE EXPRESSION BIOMARKERS AND THEIR USE FOR DIAGNOSTIC AND PROGNOSTIC APPLICATION IN PATIENTS POTENTIALLY IN NEED OF HDAC INHIBITOR TREATMENT” (4SC AG, priority 2013, published 2016)

Assays:
Assay type in all cases: cell-based, human
18S = experiment: Gene expression in HT29 cancer cells (in vitro); conditions: standardized to 0 h
Method: (§1) Hatched columns relate to blood, black columns relate to HepG2 cells, white boxes relate to HT 29 cells. Values are standardized to the value at 0 h.
(§2) Samples were obtained and gene expressions were determined with the methods as described herein below. The results are shown in below table 3 and FIGS. 2 and 3
(§3) The above values represent a mean value which was determined on the basis of 2 biological replicates, for each of which 3 technical replicates were prepared. […] The level of gene expression determined in peripheral blood samples can be correlated with a certain level of activity of HDAC in the diseased cells, e.g. by applying an appropriate conversion factor or conversion table, which may be determined for each specific disease, and/or patient group.
(§4) To determine RNA expression levels of ZFP64 in different cancer cell lines and PBMC, the cell membranes were chemically disrupted with a buffer containing guanidine isothiocycanate, which lyses the cells and supports the binding of RNA to a silica membrane and RNA was extracted via a filter-based spin column.
(§5) The High-Capacity cDNA Reverse Transcription Kit (Applied Biosystems) was used for reverse transcription of total RNA into single stranded cDNA with the aid of random hexamer primers according to the manufacturer's instructions. Briefly, for the reaction mix total RNA was mixed with random primers in excess, 4 mM dNTP Mix, 2.5 U/reaction, reverse transcriptase and nuclease free water. The reverse transcription took place in a thermal cycler under the following conditions: 25° C. for 10 min, 37° C. for 120 min, 85° C. for 5 min, followed by 4° C. for cooling down the reaction. The reverse transcription can be done in principle as well with other reverse transcriptases, primers and temperature protocols. Whenever possible, 250 ng total RNA were reverse transcribed if not available, lower amounts were used.
(§6) Custom TaqMan® Arrays (Applied Biosystems) in Format 16 were designed for the gene expression analysis of biomarkers of the present invention and housekeeping genes as outlined in table 4. These arrays allow for qPCR analysis of 8 samples per card. Of course, all reactions can be done as well by conventional qPCR analysis with specific primers.

CCDC43 = experiment: Gene expression in HT29 cancer cells (in vitro); conditions: standardized to 0 h
Method: as §1, §2, §3, §4, §5, §6

DPP3 = experiment: Gene expression in HT29 cancer cells (in vitro); conditions: standardized to 0 h
Method: as §1, §2, §3, §4, §5, §6

GAPDH = experiment: Gene expression in HT29 cancer cells (in vitro); conditions: standardized to 0 h
Method: as §1, §2, §3, §4, §5, §6

HIST2H4A/B = experiment: Gene expression in HT29 cancer cells (in vitro); conditions: standardized to 0 h
Method: as §1, §2, §3, §4, §5, §6

KDELC2 = experiment: Gene expression in HT29 cancer cells (in vitro); conditions: standardized to 0 h
Method: as §1, §2, §3, §4, §5, §6

MICALL1 = experiment: Gene expression in HT29 cancer cells (in vitro); conditions: standardized to 0 h
Method: as §1, §2, §3, §4, §5, §6

TBP = experiment: Gene expression in HT29 cancer cells (in vitro); conditions: standardized to 0 h
Method: as §1, §2, §3, §4, §5, §6

ZFP64 [1] = experiment: Gene expression in HT29 cancer cells (in vitro); conditions: standardized to 0 h
Method: as §1, §2, §3, §4, §5, §6

ZFP64 [2] = experiment: Nuclear protein extraction and Western blot, HepG2 cells; conditions: 5 μM, 24 h, vs 0.1% DMSO
Method: (§7) After isolating nuclear fractions, ZFP64 protein levels were detected by Western Blot analysis. Histone H3 serves as nuclear loading control.
(§8) 4 h upon seeding, HepG2 cells were treated with either 0.1% DMSO or 5 μM resminostat.
(§9) 24 h upon resminostat treatment, cells were washed once with PBS before scraping and harvesting in cold PBS and transferring the cells into pre-chilled 15 ml falcon tubes. […]
(§10) From each nuclear sample 4.4 μg protein (measured via BCA protein assay) were added to the same amount of Tricine buffer (supplemented with B-Mercaptoethanol), heated at 95° C. for 5 min and then placed on ice. […]
(§11) The next day, after washing four times with Washing Buffer, membranes were incubated for 1 h with the corresponding horseradish peroxidase-conjugated anti-rabbit IgG secondary antibody at a dilution of 1/50.000 and anti-Biotin at a dilution of 1/1.000 (diluted in 10 ml 1/10 diluted SuperBlock T20 Blocking Buffer). After washing four times with Washing Buffer, HRP signals were detected using enhanced chemoluminescence and exposed to X-ray films. Subsequently, the films were scanned using the Gel Doc 2000 and the corresponding signals were quantified with the “Quantity One” Software (BioRad).

Histone H3 = experiment: Nuclear protein extraction and Western blot, HepG2 cells (nuclear loading control); conditions: 5 μM, 24 h, vs 0.1% DMSO
Method: as §7, §8, §9, §10, §11

Expression level, MICALL1 (MICALL1; 2 h): 0.81
Expression level, MICALL1 (MICALL1; 5 h): 0.42
SMILES: CN(C)Cc1ccc(S(=O)(=O)n2ccc(/C=C/C(=O)NO)c2)cc1 [resminostat, (E)-3-(1-(4-((dimethylamino)methyl)phenylsulfonyl)-1H-pyrrol-3-yl)-N-hydroxyacrylamide]
Expression level, 18s (housekeeping gene) (18S; 2 h): 0.94
Expression level, 18s (housekeeping gene) (18S; 5 h): 0.91
Expression level, CCDC43 (CCDC43; 2 h): 0.82
Expression level, CCDC43 (CCDC43; 5 h): 0.53
Expression level, DPP3 (DPP3; 2 h): 0.87
Expression level, DPP3 (DPP3; 5 h): 0.72
Expression level, GAPDH (housekeeping gene) (GAPDH; 2 h): 0.93
Expression level, GAPDH (housekeeping gene) (GAPDH; 5 h): 0.97
Expression level, HIST2H4A/B (HIST2H4A/B; 2 h): 0.96
Expression level, HIST2H4A/B (HIST2H4A/B; 5 h): 0.88
Expression level, KDELC2 (KDELC2; 2 h): 0.79
Expression level, KDELC2 (KDELC2; 5 h): 0.35
Expression level, TBP (housekeeping gene) (TBP; 2 h): 1.15
Expression level, TBP (housekeeping gene) (TBP; 5 h): 1.13
Expression level, ZFP64 (ZFP64 [1]; 2 h): 0.58
Expression level, ZFP64 (ZFP64 [1]; 5 h): 0.25
ZFP64 nuclear protein levels (Western Blot) (ZFP64 [2]): diminished
Histone H3 levels (nuclear loading control) (Histone H3): essentially unaltered
